The text below walks through data of patent US8372844B2, “Piperazinyl-propyl-pyrazole derivatives as dopamine D4 receptor antagonists, and pharmaceutical compositions containing the same” (Korea Research Institute of Chemical Technology, priority 2007, dated 2013).

A word on the IC50: it is the concentration at which inhibition is half-maximal.

The target of test [1] is T1, human recombinant dopamine D4.2 receptor (Homo sapiens, UniProt P21917, DEL265-296).
T1 construct: purchased PerkinElmer Life and Analytical Sciences, USA; host or cells: CHO-K1 cells
T1 sequence (P21917 with tags, fused parts or gaps DEL265-296): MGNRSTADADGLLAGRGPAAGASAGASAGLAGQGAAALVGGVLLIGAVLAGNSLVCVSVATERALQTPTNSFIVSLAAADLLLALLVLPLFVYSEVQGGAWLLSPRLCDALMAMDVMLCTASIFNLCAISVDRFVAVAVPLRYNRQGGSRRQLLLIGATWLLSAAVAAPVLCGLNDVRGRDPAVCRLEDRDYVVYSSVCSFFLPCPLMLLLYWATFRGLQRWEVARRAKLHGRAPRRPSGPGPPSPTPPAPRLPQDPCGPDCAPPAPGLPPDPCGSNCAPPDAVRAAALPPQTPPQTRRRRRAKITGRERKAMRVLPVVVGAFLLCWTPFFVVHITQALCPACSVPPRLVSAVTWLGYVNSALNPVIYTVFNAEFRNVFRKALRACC
Put plainly: Measurement of affinity for dopamine D4 receptor ([3H]YM-09151-2 binding). As to conditions: [3H]YM-09151-2 0.1 nM, receptor expressed in CHO-K1 cells, 120 min at 25° C. The protocol: The affinities of the compounds for dopamine D4 receptor were measured by using human recombinant dopamine D4.2 receptor (PerkinElmer Life and Analytical Sciences, USA) expressed in CHO-K1 cells, and [^3H]YM-09151-2 (PerkinElmer) was used as a radioactive ligand.
50 mM Tris-HCl (pH 7.4) containing 120 mM NaCl, 5 mM KCl, 5 mM MgCl2 and 1 mM EDTA was used as a buffer solution for the analysis of receptor binding. [^3H] YM-09151-2 binding reactions were performed in a 96-well plate format.
For drug screening, a reaction mixture with a final volume of 0.25 mL was prepared by mixing a compound of the present invention, D4 receptor membrane (43 μg/well), [^3H] YM-09151-2 (0.1 nM), 50 mM Tris-HCl (pH 7.4) and the like. The reaction mixture was incubated for 120 min at 25° C., and then promptly passed through Wallac GF/C glass fiber filter (Wallac, Finland), which was already wetted in 0.5% PEI, by using Inotech harvester (Inotech) to terminate the reaction, and then washed with cold 50 mM Tris-HCl buffer solution. The filter was then covered with MeltiLex, sealed in a sample bag, and then dried in an oven. The radioactivity retained in the filter was finally counted using MicroBeta Plus, Wallac.
The affinity (IC50) of a compound for the receptor was calculated via nonlinear regression analysis of sigmoidal dose-response equation with the data obtained from three independent experiments (GraphPad Prism Program, San Diego, USA), which are carried out using 7-8 different concentrations of the compound in duplicate. Nonspecific binding was measured in the presence of 10 μM clozapine.

In test [2] the target is T2, Human recombinant dopamine D3 receptor (Homo sapiens, UniProt P35462).
T2 construct: purchased Euroscreen; host or cells: CHO cell line
As to the kind of experiment: Measurement of affinity for dopamine D3 receptor ([3H]spiperone binding). As to conditions: [3H]spiperone 0.8 nM, CHO cell line, 60 min at 27° C. The protocol: Human recombinant dopamine D2 and D3 receptors, which were expressed in CHO cell lines, respectively, were purchased from PerkinElmer and Euroscreen, respectively.
50 mM Tris-HCl (pH 7.4) containing […] and 1 mM EDTA was used as a buffer solution for the measurement of affinity for dopamine D2 receptor. 50 mM Tris-HCl (pH 7.4) containing 5 mM MgCl2, 5 mM EDTA, 5 mM KCl, 1.5 mM CaCl2 and 120 mM NaCl was used as a buffer solution for the measurement of affinity for dopamine D3 receptor. For measurement of non-specific binding, 10 μM haloperidol (haloperidol) was used.

The target of the next test is 5-HT2A receptor (Homo sapiens, UniProt P28223). As to the kind of experiment: Serotonin receptor binding experiment, 5-HT2A. As to conditions: [3H]ketanserin 1 nM, 15 min at 37° C.; read-out: Receptor affinity (IC50, nM) 5-HT2A. Also noted: species or system human or rat. Here is the method:
(§1) The measurement of affinity for serotonin 5-HT receptor family was performed according to the experimental conditions as specified in Table 2 below using the method same as in Experimental Example 1 above.

The target of a further test is T3, 5-HT2C receptor (Homo sapiens, UniProt P28335).
T3 sequence (P28335 33-458): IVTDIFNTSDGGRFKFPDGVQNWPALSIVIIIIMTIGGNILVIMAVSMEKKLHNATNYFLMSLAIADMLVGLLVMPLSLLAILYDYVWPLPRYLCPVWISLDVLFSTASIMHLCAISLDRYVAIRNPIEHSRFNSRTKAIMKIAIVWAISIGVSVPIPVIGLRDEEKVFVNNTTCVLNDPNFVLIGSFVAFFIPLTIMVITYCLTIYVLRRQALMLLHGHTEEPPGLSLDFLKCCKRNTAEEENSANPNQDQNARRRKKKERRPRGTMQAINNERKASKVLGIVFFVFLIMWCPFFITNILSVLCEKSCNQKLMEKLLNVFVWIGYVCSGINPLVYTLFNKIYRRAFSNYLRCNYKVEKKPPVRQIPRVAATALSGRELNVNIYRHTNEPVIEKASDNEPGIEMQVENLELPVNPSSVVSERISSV
As to the kind of experiment: Serotonin receptor binding experiment, 5-HT2C. As to conditions: [3H]Mesulergine 1 nM, 30 min at 37° C.; read-out: Receptor affinity (IC50, nM) 5-HT2C. Set-up: species or system human or rat. The protocol:
as §1

Another test concerns the target 5-HT6 receptor (Homo sapiens, UniProt P50406). Put plainly: Serotonin receptor binding experiment, 5-HT6. Set-up: species or system human or rat. As to conditions: [3H]LSD 1.8 nM, 60 min at 37° C.; read-out: Receptor affinity (IC50, nM) 5-HT6. Here is the method:
as §1

The next test addresses 5-HT7 receptor (Homo sapiens, UniProt P34969). Put plainly: Serotonin receptor binding experiment, 5-HT7. Also noted: species or system human or rat. As to conditions: [3H]LSD 3 nM, 90 min at 27° C.; read-out: Receptor affinity (IC50, nM) 5-HT7. Here is the method: as §1
The subject of test [3] is apomorphine-induced cage climbing in mice. As to the kind of experiment: Apomorphine-induced climbing behavior in mice. In kind it is in vivo. As to conditions: ip 30 min prior to apomorphine (1 mg/kg, sc); for ED50: Mus musculus, read-out: Inhibitory effects on apomorphine-induced climbing behavior ED50 (mg/kg, ip). Here is the method: When mice were treated with apomorphine (1 mg/kg, sc), a potent dopamine receptor agonist, and were put into cylindrical cages (diameter, 12 cm/height, 14 cm) with the floor and wall consisting of metal bars and covered with a lid, they begin to perform repeatedly a psychotic behavior of ‘cage climbing’. Their climbing behaviors were monitored every 10 min for 30 min and scored by 4-point rating scale (0˜3 points) depending on the extent of the behavior (Costentin, J. et al., Nature 1975, 257, 405-7; Protais, P. et al., Psychopharmacology 1976, 50, 1-6).
The compounds were injected intraperitoneally into mice 30 min prior to apomorphine administration. The inhibitory effects of the compounds against control group were measured and each ED50 was calculated therefrom.

T2 sequence (P35462 whole entry): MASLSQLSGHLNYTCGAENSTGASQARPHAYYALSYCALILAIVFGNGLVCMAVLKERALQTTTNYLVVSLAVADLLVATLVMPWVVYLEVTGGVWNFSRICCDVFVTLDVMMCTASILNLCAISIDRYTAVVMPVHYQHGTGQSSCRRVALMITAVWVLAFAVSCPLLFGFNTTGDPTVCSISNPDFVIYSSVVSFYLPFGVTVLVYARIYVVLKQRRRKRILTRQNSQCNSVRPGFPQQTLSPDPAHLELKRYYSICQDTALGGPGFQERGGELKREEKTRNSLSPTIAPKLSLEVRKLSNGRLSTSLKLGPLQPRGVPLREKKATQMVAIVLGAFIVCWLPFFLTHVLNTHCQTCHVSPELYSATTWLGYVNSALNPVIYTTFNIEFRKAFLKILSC
5-HT2A receptor, sequence (P28223 whole entry): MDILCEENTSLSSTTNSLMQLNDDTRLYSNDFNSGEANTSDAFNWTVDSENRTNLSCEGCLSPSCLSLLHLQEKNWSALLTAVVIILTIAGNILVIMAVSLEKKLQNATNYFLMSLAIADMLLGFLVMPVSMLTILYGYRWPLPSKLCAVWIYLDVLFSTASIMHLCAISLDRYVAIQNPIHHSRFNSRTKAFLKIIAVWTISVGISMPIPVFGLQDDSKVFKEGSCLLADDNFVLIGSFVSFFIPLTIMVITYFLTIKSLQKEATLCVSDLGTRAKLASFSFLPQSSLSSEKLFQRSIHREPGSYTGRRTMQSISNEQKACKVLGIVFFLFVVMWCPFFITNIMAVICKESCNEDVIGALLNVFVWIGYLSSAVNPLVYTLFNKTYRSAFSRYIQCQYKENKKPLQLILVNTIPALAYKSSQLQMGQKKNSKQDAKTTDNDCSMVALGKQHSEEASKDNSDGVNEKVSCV
5-HT7 receptor, sequence (P34969 whole entry): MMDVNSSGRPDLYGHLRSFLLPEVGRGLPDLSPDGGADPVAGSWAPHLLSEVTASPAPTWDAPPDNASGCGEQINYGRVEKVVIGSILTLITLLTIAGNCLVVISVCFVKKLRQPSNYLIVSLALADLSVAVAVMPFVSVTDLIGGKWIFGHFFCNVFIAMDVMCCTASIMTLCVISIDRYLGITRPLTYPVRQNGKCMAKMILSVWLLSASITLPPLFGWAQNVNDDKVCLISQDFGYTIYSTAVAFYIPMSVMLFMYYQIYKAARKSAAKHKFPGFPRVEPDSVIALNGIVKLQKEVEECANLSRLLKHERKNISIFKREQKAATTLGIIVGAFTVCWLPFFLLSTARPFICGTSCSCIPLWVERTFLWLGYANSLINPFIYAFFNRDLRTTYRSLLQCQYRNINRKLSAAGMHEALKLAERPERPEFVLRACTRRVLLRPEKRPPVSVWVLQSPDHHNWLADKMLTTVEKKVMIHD
5-HT6 receptor, sequence (P50406 whole entry): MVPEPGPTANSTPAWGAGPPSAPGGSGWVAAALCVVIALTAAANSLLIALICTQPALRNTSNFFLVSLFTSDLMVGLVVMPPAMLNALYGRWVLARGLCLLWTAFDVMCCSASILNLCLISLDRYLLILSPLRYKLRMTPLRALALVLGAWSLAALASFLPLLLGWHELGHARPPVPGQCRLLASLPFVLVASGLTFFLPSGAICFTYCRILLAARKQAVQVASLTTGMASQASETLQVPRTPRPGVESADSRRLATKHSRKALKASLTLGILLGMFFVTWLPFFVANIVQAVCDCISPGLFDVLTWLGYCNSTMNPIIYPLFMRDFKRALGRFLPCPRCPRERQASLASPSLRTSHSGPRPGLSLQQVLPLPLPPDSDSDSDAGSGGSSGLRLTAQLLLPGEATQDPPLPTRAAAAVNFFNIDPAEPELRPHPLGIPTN

For `CCCc1cc(CCCN2CCN(c3ccc(C)c(C)c3)CC2)n(-c2ccccc2)n1` [Compound 159, 1-(3,4-dimethylphenyl)-4-(3-(1-phenyl-3-propyl-1H-pyrazol-5-yl)propyl)piperazine], the IC50 in test [1] was 1.3 nM; in test [2], 131 nM; on 5-HT2A receptor it was 8 nM; at 5-HT2C receptor, 154 nM; on 5-HT6 receptor it was 2500 nM; at 5-HT7 receptor, 195 nM. The ED50 in test [3] was 8.8 to 14.5 mg/kg. For the same molecule, in test [3], the “Inhibitory effects on apomorphine-induced climbing behavior ED50 (mg/kg, ip)” value (shortened to “Inhibitory effects”) was 9.1 mg/kg.

With `CCCc1cc(CCCN2CCN(c3ccccc3F)CC2)n(-c2ccccc2)n1` [Compound 156, 1-(2-fluorophenyl)-4-(3-(1-phenyl-3-propyl-1H-pyrazol-5-yl)propyl)piperazine], the concentration for half-maximal inhibition (IC50) in test [1] was 3.5 nM; in test [2], 87 nM; on 5-HT2A receptor, 152 nM; at 5-HT2C receptor it was 1400 nM; on 5-HT6 receptor, over 10000 nM; at 5-HT7 receptor, 313 nM. In addition, the ED50 in test [3] was 8.8 to 14.5 mg/kg. For the same molecule, the “Inhibitory effects” value in test [3] is 9.6 mg/kg.

On to `CCCc1cc(CCCN2CCN(c3cccc(C)c3C)CC2)n(-c2ccccc2)n1` [Compound 160, 1-(2,3-dimethylphenyl)-4-(3-(1-phenyl-3-propyl-1H-pyrazol-5-yl)propyl)piperazine], for which the IC50 in test [1] was found to be 2.9 nM; in test [2], 229 nM; on 5-HT2A receptor, 65 nM; on 5-HT2C receptor it was 141 nM; at 5-HT6 receptor it was 2010 nM; on 5-HT7 receptor, 84 nM. In addition, in test [3], the ED50 lay within 8.8 to 14.5 mg/kg. The “Inhibitory effects” value in test [3] is recorded as 10.6 mg/kg.

Regarding `CCCc1cc(CCCN2CCN(c3ccccc3)CC2)n(-c2ccccc2)n1` [Compound 155, 1-phenyl-4-(3-(1-phenyl-3-propyl-1H-pyrazol-5-yl)propyl)piperazine], the IC50 is 5.9 nM in test [1]; 461 nM in test [2]; 35 nM at 5-HT2A receptor; 671 nM at 5-HT2C receptor; over 10000 nM on 5-HT6 receptor; 259 nM on 5-HT7 receptor. In addition, in test [3], the ED50 is 8.8 to 14.5 mg/kg. Besides, in test [3], the “Inhibitory effects” value came out at 10.7 mg/kg.

`CC(C)c1cc(CCCN2CCN(c3ccccc3F)CC2)n(-c2ccccc2)n1` [Compound 177, 1-(2-fluorophenyl)-4-(3-(1-phenyl-3-isopropyl-1H-pyrazol-5-yl)propyl)piperazine]: the IC50 in test [1] amounted to 8 nM; in test [2], 687 nM; at 5-HT2A receptor, 27 nM; on 5-HT2C receptor, 505 nM; on 5-HT6 receptor, 9210 nM; on 5-HT7 receptor, 252 nM. The ED50 in test [3] was 8.8 to 14.5 mg/kg. The “Inhibitory effects” value in test [3] came to 8.8 mg/kg.
